Assay results: ChEMBL document CHEMBL3638723, “Isoxazolo-pyridine derivatives” (2014)
pKi: −log10 of the molar value.

Target: T1, Gamma-aminobutyric acid receptor subunit alpha-5 (Homo sapiens, UniProt P31644)
T1 sequence (P31644 whole entry): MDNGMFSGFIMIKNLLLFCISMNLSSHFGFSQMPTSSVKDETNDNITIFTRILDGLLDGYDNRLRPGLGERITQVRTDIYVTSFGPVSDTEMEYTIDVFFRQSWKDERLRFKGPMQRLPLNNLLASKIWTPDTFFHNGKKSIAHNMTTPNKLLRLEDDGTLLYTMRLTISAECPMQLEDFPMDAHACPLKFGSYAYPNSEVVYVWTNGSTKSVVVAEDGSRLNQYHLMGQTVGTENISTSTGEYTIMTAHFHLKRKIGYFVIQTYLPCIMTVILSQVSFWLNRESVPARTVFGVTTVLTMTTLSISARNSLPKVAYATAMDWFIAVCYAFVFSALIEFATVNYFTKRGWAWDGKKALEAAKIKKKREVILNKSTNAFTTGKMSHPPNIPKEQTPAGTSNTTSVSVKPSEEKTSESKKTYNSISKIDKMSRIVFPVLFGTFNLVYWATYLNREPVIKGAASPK
Assay: Radioligand Binding Assay: Radioligand binding assays were carried out in a volume of […] (96-well plates) which contained […] of cell memebranes, [3H]flumazenil at a concentration of 1 nM for α1, α2, α3 subunits and 0.5 nM for α5 subunits and the test compound in the range of 10-10−3x10−6 M. Nonspecific binding was defined by 10−5 M diazepam and typically represented less than 5% of the total binding. Assays were incubated to equilibrium for 1 hour at 4 C. and harvested onto GF/C uni-filters (Packard) by filtration using a Packard harvester and washing with ice-cold wash buffer (50 mM Tris; pH 7.5). After drying, filter-retained radioactivity was detected by liquid scintillation counting.

Row | pKi | SMILES
1 | 8.89 | Cc1onc(-c2ccccc2)c1COc1ccc(C(=O)NC(C)C)cn1
2 | 7.52 | Cc1onc(-c2ccccc2)c1COc1ccc(C(=O)N2CCn3cnnc3C2)cn1
3 | 7.82 | Cc1onc(-c2ccccc2)c1COc1ccc(C(=O)N2CC3(COC3)C2)cn1

Second part, the molecule before the results:

Row | SMILES | pKi
4 | Cc1onc(-c2ccc(Cl)cn2)c1COc1ccc(C(=O)N2CCSCC2)cn1 | 9.40
5 | Cc1onc(-c2ccccn2)c1COc1ccc(C(=O)N2CCOCC2)cn1 | 7.84
6 | Cc1onc(-c2ccc(Cl)cc2)c1COc1ccc(C(=O)N2CCOCC2)cn1 | 8.27
